Structures can show the parent of a compound that is named as a salt. Bounds are passed on as bounds.

The assay concerns the target T1, human V1b receptors (Homo sapiens, UniProt P47901).
T1 construct: expressed in transfected cells; host or cells: CHO-K1 (membrane preparation V1b-3H2)
T1 sequence (P47901 1-424): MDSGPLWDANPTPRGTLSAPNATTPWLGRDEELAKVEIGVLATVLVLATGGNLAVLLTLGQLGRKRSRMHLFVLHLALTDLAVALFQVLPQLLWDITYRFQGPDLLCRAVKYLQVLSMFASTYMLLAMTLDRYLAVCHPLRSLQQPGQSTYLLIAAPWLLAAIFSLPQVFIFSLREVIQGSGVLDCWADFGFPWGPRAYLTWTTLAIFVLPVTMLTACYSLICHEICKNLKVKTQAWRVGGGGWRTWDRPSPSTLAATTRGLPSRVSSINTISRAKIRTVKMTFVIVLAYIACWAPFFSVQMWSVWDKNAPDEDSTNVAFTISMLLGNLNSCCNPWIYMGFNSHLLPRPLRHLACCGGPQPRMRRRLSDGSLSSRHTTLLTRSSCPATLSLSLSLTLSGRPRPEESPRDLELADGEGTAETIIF
Put plainly: Vasopressin V1b receptor binding assay. To be noted: membranes from CHO-K1 cells expressing human V1b receptors, displacement of 1.5 nM 3H-AVP; read-out: Binding affinity for the vasopressin V1b receptor. On the procedure:
Vasopressin V1b Receptor Binding Assay
The binding of the compounds of this invention to the vasopressin V1b receptor was determined with the following assay:
Compounds were dissolved in a concentration of 10^−2 M or 10^−3 M in DMSO. Further dilutions were performed with water.
The procedure for the binding assay was based on the method of Tahara et al. (Tahara A et al., Brit. J. Pharmacol. 125, 1463-1470 (1998)). Assays (0.250 ml) consisted of membranes (58 μg protein) from CHO-K1 cells permanently expressing human V1b receptors (preparation V1b-3H2, containing protease inhibitors, Roche complete Mini #1836170), 1.5 nM ^3H-AVP (8-Arg-vasopressin, NET 800) in incubation buffer (total binding) and different concentrations of test compound (displacement). Non-specific binding was defined with 10^−6 M AVP. Assays were performed in triplicate.
Incubation buffer: 50 mM Tris, 10 mM MgCl2, 0.1% BSA adjusted to pH 7.4 with HCl.
After incubation, 60 min at room temperature, bound and free radioligand was separated by filtration under vacuum through Whatman GF/B glass fibre mats using a Skatron cell harvester 7000.
Liquid scintillation counting was performed in beta-counters, Tricarb model 2000 or 2200CA (Packard). Dpm were calculated by a programme with standardisation using a standard quench series.
Evaluation of binding parameters was performed by non-linear regression analysis with SAS. The strategy of this program is similar to the program LIGAND described by Munson and Rodbard (Munson PJ and Rodbard D, Analytical Biochem 107, 220-239 (1980)).
For `COc1ccc(S(=O)(=O)N2C(=O)C(c3cccnc3OC)(N3CC=C[C@H]3C(=O)N(C)C)c3cc(Cl)ccc32)c(OC)c1` (mixture of isomers) [Example 247, (S)-1-[5-Chloro-1-(2,4-dimethoxy-benzenesulfonyl)-3-(2-methoxy-pyridin-3-yl)-2-oxo-2,3-dihydro-1H-indol-3-yl]-2,5-dihydro-1H-pyrrole-2-carboxylic acid dimethylamide], the Ki was below 50 nM.
For `COC(=O)[C@@H]1CCCN1C1(c2cccnc2OC)C(=O)N(S(=O)(=O)c2ccc(OC)cc2OC)c2ccc(Cl)cc21` (mixture of isomers) [Example 248, (S)-1-[5-Chloro-1-(2,4-dimethoxy-benzenesulfonyl)-3-(2-methoxy-pyridin-3-yl)-2-oxo-2,3-dihydro-1H-indol-3-yl]-pyrrolidine-2-carboxylic acid methyl ester], the Ki is below 50 nM.
Turning to `COc1ccc(S(=O)(=O)N2C(=O)C(c3nc4ccccc4s3)(N3C[C@H](O)C[C@H]3C(=O)N(C)C)c3cc(Cl)ccc32)c(OC)c1` (single isomer, unassigned) [Example 2], the Ki was below 50 nM.
Take `COc1ccc(S(=O)(=O)N2C(=O)C(c3cnc(OC)nc3OC)(N3C[C@H](O)C[C@H]3C(=O)N(C)C)c3cc(Cl)ccc32)c(OC)c1` (single isomer, unassigned) [Example 3]: the Ki was below 50 nM.
On to `COc1ccc(S(=O)(=O)N2C(=O)C(c3cccnc3OC)(N3C[C@H](O)C[C@H]3C(=O)N(C)C)c3cc(Cl)ccc32)c(OC)c1` (single isomer, unassigned) [Example 6], for which the Ki is 50 to 500 nM.
Take `COc1ccc(S(=O)(=O)N2C(=O)C(c3ncccc3OC)(N3C[C@H](O)C[C@H]3C(=O)N(C)C)c3cc(Cl)ccc32)c(OC)c1` (single isomer, unassigned) [Example 9]: the Ki was below 50 nM.
Take `COc1ccc(S(=O)(=O)N2C(=O)C(c3cnccc3OC)(N3C[C@H](O)C[C@H]3C(=O)N(C)C)c3cc(Cl)ccc32)c(OC)c1` (single isomer, unassigned) [Example 10]: the Ki was below 50 nM.
As for `COc1ccc(S(=O)(=O)N2C(=O)C(c3nccnc3OC)(N3C[C@H](O)C[C@H]3C(=O)N(C)C)c3cc(Cl)ccc32)c(OC)c1` (single isomer, unassigned) [Example 13], the Ki is below 50 nM.
As to `COc1ccccc1C1(N2C[C@H](O)C[C@H]2C(=O)N(C)C)C(=O)N(S(=O)(=O)c2cccc3cccnc23)c2ccc(Cl)cc21` (single isomer, unassigned) [Example 28], the Ki is below 50 nM.
As to `COc1ccccc1C1(N2C[C@H](O)C[C@H]2C(=O)N(C)C)C(=O)N(S(=O)(=O)c2ccc(Cl)s2)c2ccc(Cl)cc21` (single isomer, unassigned) [Example 31], the Ki is below 50 nM.
As for `COc1ccccc1C1(N2C[C@H](O)C[C@H]2C(=O)N(C)C)C(=O)N(S(=O)(=O)c2sc(Cl)cc2Br)c2ccc(Cl)cc21` (single isomer, unassigned) [Example 32], the Ki was 50 to 500 nM.
In the case of `COc1ccccc1C1(N2C[C@H](O)C[C@H]2C(=O)N(C)C)C(=O)N(S(=O)(=O)c2ccccn2)c2ccc(Cl)cc21` (single isomer, unassigned) [Example 47], the Ki was below 50 nM.
As to `COc1ccccc1C1(N2C[C@H](O)C[C@H]2C(=O)N(C)C)C(=O)N(S(=O)(=O)c2ccc(Br)cn2)c2ccc(Cl)cc21` (single isomer, unassigned) [Example 48], the Ki is below 50 nM.
With `COc1ccccc1C1(N2C[C@H](O)C[C@H]2C(=O)N(C)C)C(=O)N(S(=O)(=O)c2ccc(C)cn2)c2ccc(Cl)cc21` (single isomer, unassigned) [Example 51], the Ki was below 50 nM.
Under `COc1ccccc1C1(N2C[C@H](O)C[C@H]2C(=O)N(C)C)C(=O)N(S(=O)(=O)c2ccc(Cl)cn2)c2ccc(Cl)cc21` (single isomer, unassigned) [Example 52] stands below 50 nM.
Under `COc1ccccc1C1(N2C[C@H](O)C[C@H]2C(=O)N(C)C)C(=O)N(S(=O)(=O)c2ncc(Br)cc2C)c2ccc(Cl)cc21` (single isomer, unassigned) [Example 53] stands below 50 nM.
Take `COc1ccccc1C1(N2C[C@H](O)C[C@H]2C(=O)N(C)C)C(=O)N(S(=O)(=O)c2ccc(N3CCOCC3)nc2)c2ccc(Cl)cc21` (single isomer, unassigned) [Example 56]: the Ki was below 50 nM.
For `COc1ccc(S(=O)(=O)N2C(=O)C(N[C@@H](C)C(=O)N(C)C)(c3cccnc3OC)c3cc(Cl)ccc32)c(OC)c1` (single isomer, unassigned) [Example 221], the Ki was below 50 nM.
The figure for `COc1ccc(S(=O)(=O)N2C(=O)C(c3ncccc3C)(N3C[C@H](O)C[C@H]3C(=O)N(C)C)c3cc(Cl)ccc32)c(OC)c1` (single isomer, unassigned) [Example 222] is below 50 nM.
As for `COc1ccc(S(=O)(=O)N2C(=O)C(c3cccnc3OC)(N3C[C@H](O)C[C@H]3C(=O)N(C)C)c3ccccc32)c(OC)c1` (single isomer, unassigned) [Example 225], the Ki was in the range of 50 to 500 nM.
The figure for `COc1ccc(S(=O)(=O)N2C(=O)C(c3cccnc3OC)(N3CCC[C@H]3C(=O)N(C)C)c3ccccc32)c(OC)c1` (single isomer, unassigned) [Example 226] is 50 to 500 nM.
The figure for `COc1ccc(S(=O)(=O)N2C(=O)C(c3cccnc3OC)(N3CCC[C@H]3C(=O)N(C)C)c3cc(Cl)ccc32)c(OC)c1` (single isomer, unassigned) [Example 227] is below 50 nM.
As to `COc1ccc(S(=O)(=O)N2C(=O)C(c3cccnc3OC)(N3C[C@H](O)C[C@H]3C(=O)N(C)C)c3cc(OC)ccc32)c(OC)c1` (single isomer, unassigned) [Example 230, fumarate], the Ki was below 50 nM.
Under `COc1ccc(S(=O)(=O)N2C(=O)C(c3cccnc3OC)(N3C[C@H](O)C[C@H]3C(=O)N(C)C)c3cc(C#N)ccc32)c(OC)c1` (single isomer, unassigned) [Example 232] stands below 50 nM; under `COc1ccc(S(=O)(=O)N2C(=O)C(c3ccncc3OC)(N3C[C@H](O)C[C@H]3C(=O)N(C)C)c3cc(Cl)ccc32)c(OC)c1` (single isomer, unassigned) [Example 234], below 50 nM; under `COc1ccc(S(=O)(=O)N2C(=O)C(c3cnc(OC)nc3OC)(N3C[C@H](O)C[C@H]3C(=O)N(C)C)c3cc(Cl)ccc32)cc1` (single isomer, unassigned) [Example 236], below 50 nM.
Regarding `COc1ccc(S(=O)(=O)N2C(=O)C(c3cccnc3OC)(N3CCCC[C@H]3C(=O)N(C)C)c3cc(Cl)ccc32)c(OC)c1` (single isomer, unassigned) [Example 237], the Ki is below 50 nM.
Under `COc1ccc(S(=O)(=O)N2C(=O)C(c3ccc(OC)nc3OC)(N3C[C@H](O)C[C@H]3C(=O)N(C)C)c3cc(Cl)ccc32)c(OC)c1` (single isomer, unassigned) [Example 238] stands below 50 nM; under `CCOc1ncccc1C1(N2C[C@H](O)C[C@H]2C(=O)N(C)C)C(=O)N(S(=O)(=O)c2ccc(OC)cc2OC)c2ccc(Cl)cc21` (single isomer, unassigned) [Example 239], below 50 nM.
Consider `COc1ccc(S(=O)(=O)N2C(=O)C(c3cccnc3OC)(N3C[C@H](O)C[C@H]3C(=O)N(C)C)c3cc(Cl)ccc32)cc1` (single isomer, unassigned) [Example 240], for which the Ki was below 50 nM.
The figure for `COc1ccccc1S(=O)(=O)N1C(=O)C(c2cccnc2OC)(N2C[C@H](O)C[C@H]2C(=O)N(C)C)c2cc(Cl)ccc21` (single isomer, unassigned) [Example 241] is 50 to 500 nM; for `COc1ccc(S(=O)(=O)N2C(=O)C(c3cccnc3OC)(N3C[C@H](O)C[C@H]3C(=O)N(C)C)c3cc(C#N)ccc32)cc1` (single isomer, unassigned) [Example 242] it is below 50 nM; for `COc1ccc(S(=O)(=O)N2C(=O)C(c3nccnc3OC)(N3C[C@H](O)C[C@H]3C(=O)N(C)C)c3cc(I)ccc32)c(OC)c1` (single isomer, unassigned) [Example 243] it is below 50 nM.
Under `COc1ccc(S(=O)(=O)N2C(=O)C(c3cccnc3OC)(N3C[C@H](O)C[C@H]3C(=O)N(C)C)c3cc(OC(F)(F)F)ccc32)c(OC)c1` (single isomer, unassigned) [Example 245] stands below 50 nM; under `COc1ccc(S(=O)(=O)N2C(=O)C(c3cccnc3OC)(N3C[C@H](F)C[C@H]3C(=O)N(C)C)c3cc(Cl)ccc32)c(OC)c1` (single isomer, unassigned) [Example 246], below 50 nM.
